Reference: patent US9493412B2, “Pyrrolinone carboxamide compounds useful as endothelial lipase inhibitors” (BRISTOL-MYERS SQUIBB COMPANY, priority 2011, dated 2016)

Biological target: endothelial lipase (EL) (Homo sapiens (Human), UniProt Q9Y5X9)
Experiment: Endothelial lipase (EL) enzymatic assay with fluorescent substrate A10070 in DMPG vesicles
Type: biochemical
Details: conditioned media from HT-1080 cells overexpressing endogenous EL; 20 min preincubation at 37° C.; read-out: HLE_EL_CRC IC50
Procedure: Endothelial lipase activity was measured using a fluorescent substrate, A10070, (Invitrogen, CA) doped into an artificial vesicle containing DMPG (Avanti Polar Lipids) as the excipient. Vesicles were prepared by combining 285 uL of 1 mM
DMPG in a 1:1 mixture of MeOH and CHCl3 with 15 uL of 1 mM A10070 in a 1:1 mixture of MeOH and CHCl3. The mixture was dried under nitrogen and resuspended in 150 uL of 50 mM HEPES pH 8.0 buffer containing 100 mM NaCl and 0.2 mM EDTA. The sample was allowed to sit at rt for 15 min and then was sonicated 3×4 mins on ice with a Branson Sonicator using duty cycle 1. This preparation provides vesicles with a mole fraction of 0.05 for the FRET substrate.
The enzymatic assay was measured using white, opaque 96-well half area plates. Each well contained 60 uL of assay buffer (50 mM HEPES pH 8.0, 50 mM NaCl and 1 mM CaCl2) and 2 ul of a DMSO solution containing compound of interest. Conditioned media obtained from HT-1080 cells, which were transformed by RAGE technology (Athersys) to overexpress endogenous EL, was added and the reaction was allowed to incubate for 20 min at 37° C. with gentle agitation. The reaction was started by the addition of 20 uL of a 1:4 dilution of vesicles. The final total reaction volume was 100 uL. The reaction rates were measured on a Gemini plate reader with an excitation wavelength of 488 nm and a emission of 530 nm. Readings were taken every 20 seconds for 10 min with agitation between each reading. The slope of the linear portion of the readout was used to calculate the rate of the reaction.
The exemplified examples disclosed in the present invention were tested in the EL assay described above and found having EL inhibitory activity.

Sequence of endothelial lipase (EL) (Q9Y5X9 21-500): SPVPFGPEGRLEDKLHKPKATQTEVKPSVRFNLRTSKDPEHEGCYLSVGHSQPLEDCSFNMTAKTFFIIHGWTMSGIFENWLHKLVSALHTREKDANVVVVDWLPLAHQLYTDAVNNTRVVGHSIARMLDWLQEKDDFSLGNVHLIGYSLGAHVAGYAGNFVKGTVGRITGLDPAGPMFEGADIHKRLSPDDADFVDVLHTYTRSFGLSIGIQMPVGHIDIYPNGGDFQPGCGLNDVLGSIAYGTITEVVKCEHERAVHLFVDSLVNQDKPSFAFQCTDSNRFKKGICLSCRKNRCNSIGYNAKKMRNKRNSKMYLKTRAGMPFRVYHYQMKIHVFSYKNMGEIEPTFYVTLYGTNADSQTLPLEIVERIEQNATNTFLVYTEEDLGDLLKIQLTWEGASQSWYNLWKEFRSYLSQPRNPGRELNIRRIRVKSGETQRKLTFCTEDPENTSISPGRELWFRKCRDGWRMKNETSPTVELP

SMILES | IC50 [nM]
CN1CC(C(=O)NCc2cccc(-c3ccccc3Cl)c2)=C(O)C1=O [Example 62, N-((2′-chlorobiphenyl-3-yl)methyl)-4-hydroxy-1-methyl-5-oxo-2,5-dihydro-1H-pyrrole-3-carboxamide] | 246
CC(=O)NCc1ccc(-c2cccc(CNC(=O)C3=C(O)C(=O)N(C)C3)c2)cc1 [Example 85, N-((4′-(acetamidomethyl)biphenyl-3-yl)methyl)-4-hydroxy-1-methyl-5-oxo-2,5-dihydro-1H-pyrrole-3-carboxamide] | 241
CN1CC(C(=O)NCC2CCN(C(=O)c3ccc(Cl)c(Cl)c3)CC2)=C(O)C1=O [Example 157, N-((1-(3,4-dichlorobenzoyl)piperidin-4-yl)methyl)-4-hydroxy-1-methyl-5-oxo-2,5-dihydro-1H-pyrrole-3-carboxamide] | 4840
Cc1ccc(Oc2ccc(CNC(=O)C3=C(O)C(=O)N(C)C3)cc2)c(C)c1 [Example 34, N-(4-(2,4-dimethylphenoxy)benzyl)-4-hydroxy-1-methyl-5-oxo-2,5-dihydro-1H-pyrrole-3-carboxamide] | 32.1
CC(=O)c1cccc(-c2cccc(CNC(=O)C3=C(O)C(=O)N(C)C3)c2)c1 [Example 66, N-((3′-acetylbiphenyl-3-yl)methyl)-4-hydroxy-1-methyl-5-oxo-2,5-dihydro-1H-pyrrole-3-carboxamide] | 285
CN1CC(C(=O)NCc2cccc(-c3ccccc3F)c2)=C(O)C1=O [Example 63, N-((2′-fluorobiphenyl-3-yl)methyl)-4-hydroxy-1-methyl-5-oxo-2,5-dihydro-1H-pyrrole-3-carboxamide] | 250
CN1CC(C(=O)NCc2ccccc2-c2ccccc2)=C(O)C1=O [Example 18, N-(biphenyl-2-ylmethyl)-4-hydroxy-1-methyl-5-oxo-2,5-dihydro-1H-pyrrole-3-carboxamide] | 27
CC(C)CN1CC(C(=O)NCCCCc2nc(-c3ccc(Cl)c(Cl)c3)no2)=C(O)C1=O [Example 21, N-(4-(3-(3,4-dichlorophenyl)-1,2,4-oxadiazol-5-yl)butyl)-4-hydroxy-1-isobutyl-5-oxo-2,5-dihydro-1H-pyrrole-3-carboxamide] | 15.4
CCN1CC(C(=O)NCC2CCc3cnc(-c4ccc(Cl)c(Cl)c4)n3C2)=C(O)C1=O (centres unmarked) [Example 214, N-((3-(3,4-Dichlorophenyl)-5,6,7,8-tetrahydroimidazo[1,5-a]pyridin-6-yl)methyl)-1-ethyl-4-hydroxy-5-oxo-2,5-dihydro-1H-pyrrole-3-carboxamide] | 460
C[C@@H](NC(=O)C1=C(O)C(=O)N(C)C1)c1cccc(-c2cccc(C#N)c2)c1 [Example 96, (R)-N-(1-(3′-cyanobiphenyl-3-yl)ethyl)-4-hydroxy-1-methyl-5-oxo-2,5-dihydro-1H-pyrrole-3-carboxamide] | 277
CC(=O)NCc1ccc(-c2cccc([C@@H](C)NC(=O)C3=C(O)C(=O)N(C)C3)c2)cc1 [Example 104, (R)-N-(1-(4′-(acetamidomethyl)biphenyl-3-yl)ethyl)-4-hydroxy-1-methyl-5-oxo-2,5-dihydro-1H-pyrrole-3-carboxamide] | 254
C[C@@H](NC(=O)C1=C(O)C(=O)N(C)C1)c1cccc(-c2cccc(C(N)=O)c2)c1 [Example 103, (R)-N-(1-(3′-carbamoylbiphenyl-3-yl)ethyl)-4-hydroxy-1-methyl-5-oxo-2,5-dihydro-1H-pyrrole-3-carboxamide] | 49.6
CN1CC(C(=O)NCc2ccc(C(=O)N3CCCCC3)cc2)=C(O)C1=O [Example 24, 4-hydroxy-1-methyl-5-oxo-N-(4-(piperidine-1-carbonyl)benzyl)-2,5-dihydro-1H-pyrrole-3-carboxamide] | 9300
CN1CC(C(=O)NCc2ccc(Oc3ccc(F)cc3)cc2)=C(O)C1=O [Example 8, N-(4-(4-fluorophenoxy)benzyl)-4-hydroxy-1-methyl-5-oxo-2,5-dihydro-1H-pyrrole-3-carboxamide] | 49.5
C[C@@H](NC(=O)C1=C(O)C(=O)N(C)C1)c1cccc(-c2cccc(C(F)(F)F)c2)c1 [Example 91, (R)-4-hydroxy-1-methyl-5-oxo-N-(1-(3′-(trifluoromethyl)biphenyl-3-yl)ethyl)-2,5-dihydro-1H-pyrrole-3-carboxamide] | 271
CN1CC(C(=O)NCc2cccc(-c3ccc(CNS(C)(=O)=O)cc3)c2)=C(O)C1=O [Example 83, 4-hydroxy-1-methyl-N-((4′-(methylsulfonamidomethyl)biphenyl-3-yl)methyl)-5-oxo-2,5-dihydro-1H-pyrrole-3-carboxamide] | 257
C[C@@H](NC(=O)C1=C(O)C(=O)N(C)C1)c1cccc(-c2cccc(F)c2)c1 [Example 92, (R)-N-(1-(3′-fluorobiphenyl-3-yl)ethyl)-4-hydroxy-1-methyl-5-oxo-2,5-dihydro-1H-pyrrole-3-carboxamide] | 246
CN1CC(C(=O)NCc2ccc(OC3CCOCC3)cc2)=C(O)C1=O [Example 22, 4-hydroxy-1-methyl-5-oxo-N-(4-(tetrahydro-2H-pyran-4-yloxy)benzyl)-2,5-dihydro-1H-pyrrole-3-carboxamide] | 270

More lines, now with the values ahead:

IC50 [nM] | SMILES
43.5 | CCN1CC(C(=O)N[C@@H]2CCc3cc(-c4ccccc4)ccc32)=C(O)C1=O [Example 218, (R)-1-ethyl-4-hydroxy-5-oxo-N-(5-phenyl-2,3-dihydro-1H-inden-1-yl)-2,5-dihydro-1H-pyrrole-3-carboxamide]
4720 | O=C(N[C@H]1CC[C@@H](c2ccccc2)CC1)C1=C(O)C(=O)N(CCS(=O)(=O)c2ccccc2)C1 [Example 172, 4-hydroxy-5-oxo-N-(cis-4-phenylcyclohexyl)-1-(2-(phenylsulfonyl)ethyl)-2,5-dihydro-1H-pyrrole-3-carboxamide]
3090 | O=C(N[C@H]1CC[C@@H](c2ccccc2)CC1)C1=C(O)C(=O)N(C2CCN(c3ccc(F)cc3)CC2)C1 [Example 179, 1-(1-(4-fluorophenyl)piperidin-4-yl)-4-hydroxy-5-oxo-N-(cis-4-phenylcyclohexyl)-2,5-dihydro-1H-pyrrole-3-carboxamide]
8470 | CN1CC(C(=O)NC2CC[C@H](c3ccccc3)C2)=C(O)C1=O (single isomer, unassigned; isomer a) [Example 173]
5730 | CNCCCN1CC(C(=O)N[C@H]2CC[C@@H](c3ccccc3)CC2)=C(O)C1=O [Example 181, 4-hydroxy-1-(3-(methylamino)propyl)-5-oxo-N-(cis-4-phenylcyclohexyl)-2,5-dihydro-1H-pyrrole-3-carboxamide]
9920 | CN(CCN1CC(C(=O)N[C@H]2CC[C@@H](c3ccccc3)CC2)=C(O)C1=O)C(=O)/C=C/C(F)(F)F [Example 178, 4-hydroxy-5-oxo-N-(cis-4-phenylcyclohexyl)-1-(2-((E)-4,4,4-trifluoro-N-methylbut-2-enamido)ethyl)-2,5-dihydro-1H-pyrrole-3-carboxamide]
6570 | CN(CCN1CC(C(=O)N[C@H]2CC[C@@H](c3ccccc3)CC2)=C(O)C1=O)c1ccccc1 [Example 210, 4-hydroxy-1-(2-(methyl(phenyl)amino)ethyl)-5-oxo-N-(cis-4-phenylcyclohexyl)-2,5-dihydro-1H-pyrrole-3-carboxamide]
50 | CCN1CC(C(=O)N[C@@H]2CCC(c3ccccc3)c3ccccc32)=C(O)C1=O (stereo partly drawn) [Example 146, 1-ethyl-4-hydroxy-5-oxo-N-((1R)-4-phenyl-1,2,3,4-tetrahydronaphthalen-1-yl)-2,5-dihydro-1H-pyrrole-3-carboxamide]
7170 | O=C(N[C@H]1CC[C@@H](c2ccccc2)CC1)C1=C(O)C(=O)N(CC(F)(F)C(F)(F)F)C1 [Example 169, 4-hydroxy-5-oxo-1-(2,2,3,3,3-pentafluoropropyl)-N-(cis-4-phenylcyclohexyl)-2,5-dihydro-1H-pyrrole-3-carboxamide]
252 | O=C(N[C@H]1CC[C@@H](c2ccccc2)CC1)C1=C(O)C(=O)N(CCCC(F)(F)F)C1 [Example 168, 4-hydroxy-5-oxo-N-(cis-4-phenylcyclohexyl)-1-(4,4,4-trifluorobutyl)-2,5-dihydro-1H-pyrrole-3-carboxamide]
8250 | CN1CC(N2CC(C(=O)N[C@H]3CC[C@@H](c4ccccc4)CC3)=C(O)C2=O)CC1=O (stereo partly drawn) [Example 196, 4-hydroxy-1-(1-methyl-5-oxopyrrolidin-3-yl)-5-oxo-N-(cis-4-phenylcyclohexyl)-2,5-dihydro-1H-pyrrole-3-carboxamide]
